The supplement of paper PMC10307832

What was measured:
Experiment in all cases: relative viability (nuclei count vs DMSO), 5 days (fraction); higher = more cells survive
OSI-027 + Decitabine = compound: COc1cccc2cc(-c3nc([C@H]4CC[C@H](C(=O)O)CC4)n4ncnc(N)c34)[nH]c12 [OSI-027] + Nc1ncn([C@H]2C[C@H](O)[C@@H](CO)O2)c(=O)n1 [Decitabine] (partner 2 µM)
Summary of the method: (§1)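 Lung cancer cell lines in 1536-well plates were dosed by pin tool the day after seeding, either with one drug alone or with a fixed anchor-drug dose plus five library-drug doses (not always all listed) in √10 steps. After 5 days, cells were fixed and their nuclei stained in one step (final 0.05% Triton X-100, 1% formaldehyde, 1 ug/ml Hoechst), then counted on 4× images. Relative viability is the nuclei count in treated wells divided by that in vehicle wells. Values are medians of duplicate plates.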

Vemurafenib + Navitoclax = compound: CCCS(=O)(=O)Nc1ccc(F)c(C(=O)c2c[nH]c3ncc(-c4ccc(Cl)cc4)cc23)c1F [Vemurafenib] + CC1(C)CCC(c2ccc(Cl)cc2)=C(CN2CCN(c3ccc(C(=O)NS(=O)(=O)c4ccc(N[C@H](CCN5CCOCC5)CSc5ccccc5)c(S(=O)(=O)C(F)(F)F)c4)cc3)CC2)C1 [Navitoclax] (partner 0.5 µM)
Summary of the method: as §1

Alpelisib + Vorinostat = compound: Cc1nc(NC(=O)N2CCC[C@H]2C(N)=O)sc1-c1ccnc(C(C)(C)C(F)(F)F)c1 [Alpelisib] + O=C(CCCCCCC(=O)Nc1ccccc1)NO [Vorinostat] (partner 1 µM)
Summary of the method: as §1

Alpelisib + Bortezomib = compound: Cc1nc(NC(=O)N2CCC[C@H]2C(N)=O)sc1-c1ccnc(C(C)(C)C(F)(F)F)c1 [Alpelisib] + CC(C)C[C@H](NC(=O)[C@H](Cc1ccccc1)NC(=O)c1cnccn1)B(O)O [Bortezomib] (partner 0.002 µM)
Summary of the method: as §1

Cell Line	relative viability (OSI-027 + Decitabine; first compound 0.01 µM)	relative viability (OSI-027 + Decitabine; first compound 0.03162 µM)	relative viability (OSI-027 + Decitabine; first compound 0.1 µM)	relative viability (OSI-027 + Decitabine; first compound 0.3162 µM)	relative viability (OSI-027 + Decitabine; first compound 1 µM)	relative viability (Vemurafenib + Navitoclax; first compound 0.03162 µM)	relative viability (Vemurafenib + Navitoclax; first compound 0.1 µM)	relative viability (Vemurafenib + Navitoclax; first compound 0.3162 µM)	relative viability (Vemurafenib + Navitoclax; first compound 1 µM)	relative viability (Alpelisib + Vorinostat; first compound 0.04 µM)	relative viability (Alpelisib + Vorinostat; first compound 0.1265 µM)	relative viability (Alpelisib + Vorinostat; first compound 0.4 µM)	relative viability (Alpelisib + Vorinostat; first compound 1.265 µM)	relative viability (Alpelisib + Vorinostat; first compound 4 µM)	relative viability (Alpelisib + Bortezomib; first compound 0.04 µM)	relative viability (Alpelisib + Bortezomib; first compound 0.1265 µM)	relative viability (Alpelisib + Bortezomib; first compound 0.4 µM)	relative viability (Alpelisib + Bortezomib; first compound 1.265 µM)	relative viability (Alpelisib + Bortezomib; first compound 4 µM)
NCI-H2085	0.545	0.562	0.611	0.52	0.446	1.05	0.972	1.23	1.09	0.801	0.686	0.888	0.754	0.633	0.982	1.08	0.816	0.927	0.842
NCI-H2087	0.268	0.228	0.24	0.214	0.16	0.936	0.915		0.987	0.808	0.669	0.583	0.647	0.853	0.651	0.78	0.893	0.685	0.47
NCI-H2126	0.558	0.553	0.565	0.523	0.601	0.808	0.778	0.825	0.83	0.717	0.565	0.67	0.5	0.457	1.06	1.06	1.03	0.974	0.81
NCI-H2347	0.639	0.635	0.621	0.577	0.454	0.633	0.78	0.7	0.75	0.524	0.598	0.766	0.555	0.49	0.784	0.849	1.12	1.08	0.876
